settings: not given

SMILES | boiling point [°C] | log10 vapour pressure (mmHg) | melting point [°C] | log10 Henry constant (atm·m³/mol) | log10 Koa | ready biodegradability | log10 Koc (L/kg) | log10 biodegradation half-life (days)
O=C(Cc1ccccc1)c1ccccc1 | 320 | -3.74 | 60 | – | – | – | – | –
CC(C)NCC(O)COc1ccc(COCCOC(C)C)cc1 (stereo not drawn) | – | – | 100 | – | – | – | – | –
CCCCCC=O | 131 | 1.05 | -56 | -3.67 | 4.41 | readily biodegradable | – | –
CCOc1ccccc1Cl | 210 | – | – | – | – | – | – | –
Cc1ccc2cc3ccc4ccccc4c3cc2c1 | – | – | 183 | – | – | – | – | –
C#CCOc1ccc(N)cc1C(=O)NCCCC | – | – | 84 | – | – | – | – | –
Nc1ccnc2ccccc12 | – | – | 155 | – | – | – | – | –
O=C(CCc1ccccc1)CCc1ccccc1 | 352 | – | 13.5 | – | – | – | – | –
CCOP(=S)(OCC)SCSc1ccc(Cl)cc1 | – | -6.52 | – | – | – | – | 4.66 | –
CN(C)c1ccc(C(O)c2ccc(N(C)C)cc2)cc1 | – | – | 101 | – | – | – | – | –
CCNCCO | 170 | – | – | – | – | – | – | –
Cc1cccc(Cl)c1Cl | 208 | – | 6 | – | – | – | – | –
CCNC(N)=O | – | – | 92.5 | – | – | – | – | –
COC(=O)c1ccc(O)c(N)c1 | – | – | 143 | – | – | – | – | –
CCC(Br)C(=O)OC (stereo not drawn) | 168 | – | – | – | – | – | – | –
CCCC(N)C(=O)O (racemic) | – | – | 305 | – | – | – | – | –
CC1CCOC(C)O1 (stereo not drawn) | 116 | – | – | – | – | – | – | –
Nc1ncccn1 | – | – | 128 | – | – | – | – | –
CC(Br)Br | 108 | 1.41 | -63 | – | – | – | – | –
c1ccc(-c2nnc(-c3ccccn3)nc2-c2ccccc2)cc1 | – | – | 192 | – | – | – | – | –
CCOP(=S)(Oc1ccc(C#N)cc1)c1ccccc1 (stereo not drawn) | – | – | 83 | – | – | – | – | –

SMILES | boiling point [°C] | log10 vapour pressure (mmHg) | melting point [°C] | log10 Henry constant (atm·m³/mol) | log10 Koa | ready biodegradability | log10 Koc (L/kg) | log10 biodegradation half-life (days)
O=[N+]([O-])c1cncn1CCN1CCOCC1 | – | – | 110 | – | – | – | – | –
CC(C)=CC(C)(C)C | 105 | 1.56 | -106 | – | – | – | – | –
Cc1ccccc1NCCO | 286 | – | – | – | – | – | – | –
C/C(=N/NC(=O)c1ccncc1)c1ccco1 | – | – | 202 | – | – | – | – | –
O=[N+]([O-])c1ccc(O)c(O)c1 | – | – | 175 | – | – | – | – | –
c1ccc2c(c1)CCNC2 | 232 | – | – | – | – | – | – | –
COO | – | – | – | -5.34 | – | – | – | –
CN1C(=O)C=CC1=O | – | – | 95 | – | – | – | – | –
CCC(=O)CC | 102 | 1.58 | -39 | -4.3 | 3.2 | readily biodegradable | – | –
O=C(Cn1ccnc1[N+](=O)[O-])NCc1ccccc1 | – | – | 189 | – | – | – | – | –
Fc1ccc(Cl)cc1 | 130 | – | -26.8 | – | – | – | – | –
CCCCOC(=O)CC#N | 231 | – | – | – | – | – | – | –
ONc1ccccc1 | – | – | 83.5 | – | – | – | – | –
CC(=O)NC(Cc1c[nH]c2ccccc12)C(=O)O (stereo not drawn) | – | – | 190 | – | – | – | – | –
CC(C)CCC(CO)C(C)C (stereo not drawn) | 211 | – | – | – | – | – | – | –
CCOc1cc(OCC)c(C(=O)CCC(=O)O)cc1OCC | – | – | 150 | – | – | – | – | –
CCCCCCCCCCCCCCCC(=O)OC | – | -4.33 | 30 | – | – | – | – | –
BrCC(Br)c1ccccc1 (stereo not drawn) | – | -1.97 | 75 | – | – | – | – | –
CC(=O)c1ccc(-c2ccccc2)cc1 | 326 | – | 121 | – | – | – | 3.22 | –
C/C(Cl)=C/C(=O)O | 195 | – | 61 | – | – | – | – | –
COc1c2c(cc3c1OCO3)CCN(C)C2 | – | – | 56 | – | – | – | – | –

SMILES | boiling point [°C] | log10 vapour pressure (mmHg) | melting point [°C] | log10 Henry constant (atm·m³/mol) | log10 Koa | ready biodegradability | log10 Koc (L/kg) | log10 biodegradation half-life (days)
FC(F)=C(Cl)Cl | 19 | – | -116 | – | – | – | – | –
CCCC(C)CCC | 118 | 1.31 | -121 | – | – | – | – | 0.602
COCCc1ccccn1 | 203 | – | – | – | – | – | – | –
CC(C)(C)C(O)C(Oc1ccc(Cl)cc1)n1cncn1 (stereo not drawn) | – | -9.51 | 124 | – | – | – | 2.7 | –
CCCCCCCCC(=O)OC | 214 | – | – | – | – | – | – | –
COCCC(C)C | 91 | – | – | – | – | – | – | –
CN(C=O)c1ccccc1 | 243 | – | 14.5 | – | – | – | – | –
CCC(O)CN (stereo not drawn) | 169 | – | 3 | – | – | – | – | –
N#CCCN1CCCCC1 | – | – | -6.8 | – | – | – | – | –
C=C(C)C(N)=O | – | -1.07 | 110 | – | – | – | – | –
O=C(Oc1ccccc1)c1ccccc1 | 314 | -2.77 | 71 | – | – | – | 3.16 | –
Brc1cccc(Oc2ccccc2)c1 | – | – | – | – | 7.36 | – | – | –
CCSC#N | 146 | – | -85.5 | – | – | – | – | –
CCOC(=O)Nc1cccc(OC(=O)Nc2ccccc2)c1 | – | -8.52 | 120 | – | – | – | 3.18 | –
C[C@@H](Cc1ccccc1)NCCC(c1ccccc1)c1ccccc1 | – | – | 36.5 | – | – | – | – | –
CCCCCCCCCOC(=O)c1ccc(N)cc1 | – | – | 69 | – | – | – | – | –
CC1C=CCC2C(=O)OC(=O)C12 (stereo not drawn) | – | – | – | – | – | not readily biodegradable | – | –
CCC(c1ccc2cc(OC)ccc2c1)C(C)(C)C(=O)O (stereo not drawn) | – | – | 140 | – | – | – | – | –
Nc1ccc(N)nc1 | – | – | 110 | – | – | readily biodegradable | – | –
CCC(CO)[N+](=O)[O-] (stereo not drawn) | – | – | -47 | – | – | – | – | –
COP(=O)(OC)O/C(C)=C/C(=O)OC(C)c1ccccc1 (stereo not drawn) | – | -4.85 | – | – | – | – | 2 | –

same assay, conditions: fish

SMILES | log10 biotransformation half-life (days)
Clc1cc(Cl)c(-c2cc(Cl)c(Cl)c(Cl)c2)cc1Cl | 2.43
CCCCCCC(C)OC(=O)COc1nc(F)c(Cl)c(N)c1Cl (stereo not drawn) | -0.61
Clc1ccc(-c2c(Cl)cc(Cl)c(Cl)c2Cl)cc1 | 1.84
